Non-standard residues stand in square brackets, D forms with d. Residues, ends and D or L forms follow the SMILES beside them. NFurfurylGly = O=C(O)CNCc1ccco1; Gly(N-CH2CH2OH) = O=C(O)CNCCO; Nphe = O=C(O)CNCc1ccccc1; NPrGly = CCCNCC(=O)O

For one data set, the system named is Jurket cells. Put plainly: Toxicity, cell death by propidium iodide staining and flow cytometry, Jurkat. Format: cell-based. The procedure:
(§1) The toxicity of Compound 2 was studied at 100 μM and 200 μM concentrations in Jurket cells (FIG. 5, left), BJAB B cells (FIG. 5, middle left), human primary CD4^+ T cells (FIG. 5, middle right), and human primary monocytes (FIG. 5, right). Cell death was assessed by propidium iodide staining and flow cytometry. […] Treatment with cycloheximide (CHX) (Sigma Aldrich), a generic inhibitor of translation, was used as a positive control for cell death induction.
For orientation: A flow cytometer gives signals particle by particle.

The subject of a further data set is BJAB B cells. Put plainly: Toxicity, cell death by propidium iodide staining and flow cytometry, BJAB. Format: cell-based. On the procedure: as §1
Data set [1] has as its system human primary CD4+ T cells. Put plainly: Toxicity, cell death by propidium iodide staining and flow cytometry, primary CD4+ T cells. In kind it is cell-based. The procedure:
as §1

Data set [2] has as its target T1, O-GlcNAcylated c-Rel (Homo sapiens, UniProt Q04864).
T1 construct: endogenous in cells; host or cells: Jurkat T cells
T1 sequence (Q04864 1-619): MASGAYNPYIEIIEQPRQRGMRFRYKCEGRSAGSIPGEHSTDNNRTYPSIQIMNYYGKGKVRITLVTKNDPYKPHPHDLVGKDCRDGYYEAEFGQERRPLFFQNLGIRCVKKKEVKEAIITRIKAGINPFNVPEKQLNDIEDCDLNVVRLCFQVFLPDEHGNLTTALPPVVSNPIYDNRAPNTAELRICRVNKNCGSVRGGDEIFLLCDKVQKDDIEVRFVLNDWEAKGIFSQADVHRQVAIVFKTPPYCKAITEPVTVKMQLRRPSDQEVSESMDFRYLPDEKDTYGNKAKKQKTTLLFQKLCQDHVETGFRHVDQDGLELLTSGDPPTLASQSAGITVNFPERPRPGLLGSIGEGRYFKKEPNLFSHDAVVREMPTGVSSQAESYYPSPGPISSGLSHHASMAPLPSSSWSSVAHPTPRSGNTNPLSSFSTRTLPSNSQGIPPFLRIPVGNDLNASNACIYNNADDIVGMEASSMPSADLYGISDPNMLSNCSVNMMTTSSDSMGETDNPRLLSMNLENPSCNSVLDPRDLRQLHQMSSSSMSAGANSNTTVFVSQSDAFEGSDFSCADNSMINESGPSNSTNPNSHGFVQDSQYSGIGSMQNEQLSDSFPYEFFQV
Put plainly: TCR-induced O-GlcNAcylation-dependent GMCSF and IL-2 expression in Jurkat T cells. Format: cell-based. The settings on record: for expression of GMCSF / expression of IL-2: Compound 2 100 μM and 200 μM, 16 hours, FIG. 3. The procedure:
It is further known that a mutation of c-Rel at S350 completely abrogates T cell receptor (TCR)-induced O-GlcNAcylation-dependent expression of GMCSF and IL-2 (Ramakrishnan, 2013). Thus, the specific inhibition of c-Rel O-GlcNAcylation by Compound 2 was studied. Jurkat cells were grown in RPMI medium at 1×10^6 cells/2 mL. The cells were treated with compound 2 (100 μM and 200 μM) for 16 hours. Cell death was assessed by propidium iodide (Biolegend) staining and flow cytometry. Following treatment with Compound 2, the resulting expression of GMCSF and IL-2 was measured. […] Further, treatment with Compound 2 specifically affected only the O-GlcNAcylation-dependent enhancement of IL-2 and GMCSF expression.
The range of concentrations at which Compound 2 is effective in suppression O-GlcNAcylation c-Rel function was studied. Jurket cells were exposed to Compound 2 in concentrations of 2 mM, 500 μM, 200 μM, 100 μM, 50 μM and 10 μM peptoid on TCR-induced GMCSF expression.
The effect of the scrambled peptoid, Compound 3, was also studied (FIG. 3, bottom right panel).

A further data set deals with T2, c-Rel (Homo sapiens, UniProt Q04864).
T2 construct: endogenous in cells
T2 sequence (Q04864 1-619): T1 sequence (Q04864 1-619)
The data set can be described thus: Nuclear translocation of c-Rel, Western blot of cytoplasmic and nuclear extracts. Format: cell-based. The settings on record: FIG. 6 top. The procedure: Activation of c-Rel involves signal-induced translocation of c-Rel from the cytoplasm to the nucleus and its subsequent DNA binding and gene expression. Thus, the effect of treatment with Compound 2 and Compound 3 (comparative) on nuclear translocation of c-Rel were examined. Cytoplasmic and nuclear extracts were prepared and Western blotting was performed as described in DeJesus, T. J. and Ramakrishnan, P. “NF-kappaB c-Rel Dictates the Inflammatory Threshold by Acting as a Transcriptional Repressor.” iScience 23, 100876 (2020).
On the technique in general: A western blot detects proteins with antibodies after separation by electrophoresis.

The target in data set [3] is T3, O-GlcNAcylated c-Rel (Homo sapiens, UniProt Q04864).
T3 construct: endogenous in cells; host or cells: primary CD4+ T cells from human PBMC
T3 sequence (Q04864 2-587 isoform Q04864-2): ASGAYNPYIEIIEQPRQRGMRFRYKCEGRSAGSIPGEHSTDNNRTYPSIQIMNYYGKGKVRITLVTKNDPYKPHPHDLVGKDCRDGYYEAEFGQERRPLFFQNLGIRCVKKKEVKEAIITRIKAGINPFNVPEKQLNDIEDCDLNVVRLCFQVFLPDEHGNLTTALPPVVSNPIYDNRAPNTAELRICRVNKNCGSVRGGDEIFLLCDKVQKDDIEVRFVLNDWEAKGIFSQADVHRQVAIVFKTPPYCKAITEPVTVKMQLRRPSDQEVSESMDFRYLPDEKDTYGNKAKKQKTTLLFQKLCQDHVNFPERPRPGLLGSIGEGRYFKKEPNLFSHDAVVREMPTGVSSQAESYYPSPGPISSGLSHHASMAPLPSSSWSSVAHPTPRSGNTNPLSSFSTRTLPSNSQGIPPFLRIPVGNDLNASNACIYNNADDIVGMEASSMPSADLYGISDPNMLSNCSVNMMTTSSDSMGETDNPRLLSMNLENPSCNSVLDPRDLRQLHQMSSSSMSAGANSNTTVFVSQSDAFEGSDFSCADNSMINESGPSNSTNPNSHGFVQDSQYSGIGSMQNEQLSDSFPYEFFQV
Put plainly: TCR-induced O-GlcNAcylated-c-Rel-dependent gene expression in primary CD4+ T cells. In kind it is cell-based. The settings on record: 100 μM. The procedure: The effect of Compound 2 was studied in primary CD4^+ T cells isolated from human peripheral blood mononuclear cells. CD4+ T cells were […] were isolated by magnetic sorting (Miltenyi Biotec) and cultured in supplemented RPMI medium. Cells were treated with 100 μM of Compound 2 twice—at the start of the experiment and at 24 hrs.

Another data set relates to B cells (BJAB). The data set can be described thus: Non-specific activity in B cells. Format: cell-based. The procedure: (§2) Compound 2 was further studied in B cells (BJAB) and macrophages (RAW 264.7). BJAB cells were grown in RPMI medium and RAW 264.7 cells were grown in DMEM medium supplemented with 100 U/mL penicillin/streptomycin, 4 mM L-glutamine and 10% fetal bovine serum.

The next data set relates to Leukemia K562 cells. Put plainly: Cell death in leukemia K562 cells. The settings on record: Compound 2 at 100 μM; compared with OSMI1 at 50 μM; FIG. 8. In kind it is cell-based. On the procedure:
The effect of Compound 2 on […] cells was studied. Leukemia K562 cells were treated with HBP inhibitor OSMI1 (50 μM) or Compound 2 (100 μM). Scrambled peptoid Compound 3 was used as a control.

For data set [4], the target named is T1, O-GlcNAcylated c-Rel. Put plainly: Oligonucleotide pull down assay, c-Rel binding to CD28RE DNA. The settings on record: Jurket cells, anti-CD3/CD28 and Thiamet-G; Compound 2 at 50 μM. On the procedure:
Oligonucleotide pull down assays were performed to examine whether Compound 2 binds to O-GlcNAcylated c-Rel and thus, competitively prevents its binding to CD28RE. Jurket cells were treated with anti-CD3/CD28 antibodies to trigger TCR activation and c-Rel nuclear translocation. Cells were contacted with Thiamet-G (an O-GlcNAse inhibitor) (Sigma Aldrich) to enhance cellular O-GlcNAcylation.

The next data set concerns macrophages (RAW 264.7). Put plainly: Non-specific activity in macrophages. Format: cell-based. The settings on record: RAW 264.7 cells. The procedure: as §2
In the next data set the test system is human primary monocytes. The data set can be described thus: Toxicity, cell death by propidium iodide staining and flow cytometry, primary monocytes. In kind it is cell-based. The settings on record: 100 μM and 200 μM, 40 hours post-treatment. On the procedure:
as §1

Setting [5] is: human primary T-cells, treated twice (start and 24 hrs).

Take `C[C@@H]1C[C@@H]([C@H](O)CC2CC(=O)NC(=O)C2)C(=O)[C@@H](C)C1` [CHX, cycloheximide, reference compound]: the “cell death, positive control” value with Jurket cells (Jurkat cells, 5 μg/mL, 16 hours post-treatment) was “significant cell death”; in the data set with BJAB B cells (5 μg/mL, 16 hours post-treatment) it was “significant cell death”; in data set [1] (human primary T cells, 5 μg/mL, 16 hours post-treatment) it was “significant cell death”.

`COc1ccccc1[C@@H](NS(=O)(=O)c1ccc2[nH]c(=O)ccc2c1)C(=O)N(Cc1ccco1)Cc1cccs1` [OSMI1, reference compound]: on O-GlcNAcylated c-Rel [2], the “expression of GMCSF” value is “well below the TCR-induced levels” and the “expression of IL-2” value is “well below the TCR-induced levels”.

With `CCCNCC(=O)N(CC(=O)N(CC(=O)N(CCO)CC(N)=O)Cc1ccccc1)Cc1ccco1` [Compound 2] (H-[NPrGly][NFurfurylGly][Nphe][Gly(N-CH2CH2OH)]-NH2), the “TCR-induced expression levels of IL-2 and GMCSF (not O-GlcNAcylation-dependent)” value on O-GlcNAcylated c-Rel [2] is reported as “did not block”. Further, the “O-GlcNAcylation-dependent GMCSF expression” value at O-GlcNAcylated c-Rel [2] (200 μM) is “near complete suppression”. Besides, the “GMCSF expression levels at higher concentrations” value at O-GlcNAcylated c-Rel [2] (500 μM and 2 mM) is on record as “did not further decrease”. The “expression of GMCSF” value on O-GlcNAcylated c-Rel [2] was “significantly decreased”. The “expression of IL-2” value at O-GlcNAcylated c-Rel [2] is recorded as “significantly decreased”. Further, at c-Rel, the “change in nuclear c-Rel levels” value is “no significant change”. Further, the cell death entry is listed as “non-significant cell death” in the data set with Jurket cells (Jurket cells, 100 μM and 200 μM, 40 hours post-treatment); “non-significant cell death” in the data set on BJAB B cells (100 μM and 200 μM, 40 hours post-treatment); “non-significant cell death” with human primary monocytes; “non-significant cell death” in data set [1] (human primary CD4+ T cells, 100 μM and 200 μM, 40 hours post-treatment). Further, at O-GlcNAcylated c-Rel [3] (setting [5]), the “TCR-induced O-GlcNAcylation-dependent increase in expression of GMCSF” value is “effectively and significantly decreased”. Besides, at O-GlcNAcylated c-Rel [3] (setting [5]), the “TCR-induced O-GlcNAcylation-dependent increase in expression of IL-2” value was “effectively and significantly decreased”. Besides, the “TCR-induced expression level of GMCSF, IL-2 and other NF-kappaB-induced genes such as A20 and I-kappa-B-alpha” value at O-GlcNAcylated c-Rel [3] (primary T cells) is on record as “did not block”. Moreover, the non-specific activity result in the data set on B cells (BJAB) and with macrophages (RAW 264.7) was “does not exhibit any non-specific activity” in each case. For the same compound, the K562 cell death result in the data set with Leukemia K562 cells is “nearly comparable to that caused by known OGT inhibitor OSMI1”. The “binding of c-Rel to CD28RE DNA” value on O-GlcNAcylated c-Rel [4] is “reduced the binding of c-Rel”.

`CCCN(CC(=O)N(CC(N)=O)Cc1ccccc1)C(=O)CN(CCO)C(=O)CNCc1ccco1` [Compound 3] (H-[NFurfurylGly][Gly(N-CH2CH2OH)][NPrGly][Nphe]-NH2): the “inhibitory effect on GMCSF expression, scrambled peptoid control” value at O-GlcNAcylated c-Rel [2] (FIG. 3 bottom right) is recorded as “no inhibitory effect”. Moreover, the “change in nuclear c-Rel levels” value on c-Rel was “no significant change”. For the same compound, the K562 cell death result in the data set with Leukemia K562 cells is “no significant cell death”. Also, the “binding of c-Rel to CD28RE DNA” value at O-GlcNAcylated c-Rel [4] is listed as “did not block the binding of c-Rel”.

These data come from US12398185B2, “Peptoid blocking O-GlcNAcylated NF-kappaB c-Rel” (Case Western Reserve University, priority 2019, dated 2025).
